Type in all cases: biochemical
For assay [1], the target named is T1, CDK1/CyclinB1 (Homo sapiens, UniProt P06493).
T1 construct: Wild-type, full length CDK1 in complex with wildtype, full length CyclinB1: Carna Cat #04-102; purchased Carna 04-102
Nature of the assay: CDK1/Cyclin B1 Mobility Shift Assay (Caliper, Table B). The following applies: read-out: CDK1/CCNB1 Caliper Ki: Average Ki. The method, then:
10 nL of 2000× compound in 100% DMSO is added to a 384-well polypropylene assay plate. 15 μL of 1.3×CDK1/B1 and 1.3× fluorescent substrate (Wild-type, full length CDK1 in complex with wildtype, full length CyclinB1: Carna Cat #04-102 and FL-Peptide 29: PerkinElmer Cat #760429) diluted in kinase buffer (50 mM Hepes, 0.01% Brij-35, 10 mM MgCl2, 1 mM EGTA, 0.05% BSA, and 2 mM DTT) is added to the plates on top of the compound, mixed, and pre-incubated for 30 minutes at room temperature. The fluorescently labeled peptide substrate is phosphorylated by CDK1/B1 upon ATP hydrolysis. Following the incubation, 5 μL of 4×ATP diluted in kinase buffer is added to the plate to initiate the reaction. Following the 30-minute incubation, the reaction is stopped by adding 75 μL of stopping buffer containing 0.5 M EDTA.
The assay plate is then read on a Lab Chip EZ Reader which separates the fluorescently labeled substrate and product peptides through a mobility difference. The phosphorylation of the substrate imparts a negative charge, which allows differences in separation as both are pulled through the microfluidic chip. The ratio of substrate and product values are used to generate percent conversion. These raw percent conversion values are normalized to calculate percent inhibition, which are fit to a four-parameter logistic curve and IC50 values are calculated. IC50 values are converted to Ki using substrate, Kmapp values, and the Cheng-Prusoff equation.

Another assay addresses CDK9/CyclinT1 (Homo sapiens, UniProt P50750). Nature of the assay: CDK9/CyclinT1 ChEF Assay (Table A). On the set-up: Wild-type, full length CDK9 in complex with wildtype, full length CyclinT1: Invitrogen Cat #PV4131; purchased Invitrogen PV4131. The following applies: 10xKm, read-out: CDK9/CCNT1 ChEF 10xKm Ki: Average Ki. How it is done: 500 nL of 50× compound in 100% DMSO is added to a 384-well low volume, white assay plate. 19.5 μL of 1.3×CDK9/CyclinT1 (Wild-type, full length CDK9 in complex with wildtype, full length CyclinT1: Invitrogen Cat #PV4131) diluted in assay buffer (50 mM Hepes, 0.01% Brij-35, 10 mM MgCl2, 0.5 mM EGTA, 1% Glycerol, and 1.2 mM DTT) is added to the plates on top of the compound and pre-incubated for 30 minutes at room temperature. Following the incubation, 5 μL of 5×Sox-chromophore (CSox) labeled peptide substrate (AQT0449, AssayQuant) & ATP diluted in assay buffer is added to the plate to initiate the reaction. The assay is incubated at room temperature for 120 min after initiation. The CSox peptide substrate is phosphorylated by CDK9/T1 upon ATP hydrolysis.
(§1) The fluorescent intensity measurement of the assay plate for all assays described above is read on a microplate reader once the assay is initiated and again at the completion of the assay. Phosphorylation of the CSox-based peptide substrate sensor results in an immediate increase in fluorescence. These raw fluorescence intensity values are normalized to calculate percent inhibition, which are fit to a four-parameter logistic curve and IC50 values are calculated. IC50 values are converted to Ki using substrate, KM^app values, and the Cheng-Prusoff equation.

The next assay deals with T2, CDK2/CyclinA2 (Homo sapiens, UniProt P24941).
T2 construct: Wild-type, full length CDK2 in complex with wildtype, full length CyclinA2: Carna Cat #04-103; purchased Carna 04-103
Nature of the assay: CDK2/CyclinA2 ChEF Assay (Table A). Particulars: for Ki: 10xKm, read-out: CDK2/CCNA2 ChEF 10xKm Ki: Average Ki. The method, then: 500 nL of 50× compound in 100% DMSO is added to a 384-well low volume, white assay plate. 19.5 μL of 1.3×CDK2/CyclinA2 (Wild-type, full length CDK2 in complex with wildtype, full length CyclinA2: Carna Cat #04-103 diluted in assay buffer (50 mM Hepes, 0.01% Brij-35, 10 mM MgCl2, 0.5 mM EGTA, 1% Glycerol, and 1.2 mM DTT) is added to the plates on top of the compound and pre-incubated for 30 minutes at room temperature. Following the incubation, 5 μL of 5×Sox-chromophore (CSox) labeled peptide substrate (AQT0255, AssayQuant) & ATP diluted in assay buffer is added to the plate to initiate the reaction. The assay is incubated at room temperature for 45 min after initiation. The CSox peptide substrate is phosphorylated by CDK2/A2 upon ATP hydrolysis.
as §1

Assay [2] deals with T1, CDK1/CyclinB1. Nature of the assay: CDK1/CyclinB1 ChEF Assay (Table A).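 Also: Ki reported in nM.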 The following applies: read-out: CDK1/CCNB1 ChEF Ki: Average Ki. How it is done: 500 nL of 50× compound in 100% DMSO is added to a 384-well low volume, white assay plate. 19.5 μL of 1.3×CDK1/CyclinB1 (Wild-type, full length CDK1 in complex with wildtype, full length CyclinB1: Carna Cat #04-102) diluted in assay buffer (50 mM Hepes, 0.01% Brij-35, 10 mM MgCl2, 0.5 mM EGTA, 1% Glycerol, and 1.2 mM DTT) is added to the plates on top of the compound and pre-incubated for 30 minutes at room temperature. Following the incubation, 5 μL of 5×Sox-chromophore (CSox) labeled peptide substrate (AQT0297, AssayQuant) & ATP diluted in assay buffer is added to the plate to initiate the reaction. The assay is incubated at room temperature for 30 min after initiation. The CSox peptide substrate is phosphorylated by CDK1/B1 upon ATP hydrolysis.
as §1

T1 sequence (P06493 whole entry): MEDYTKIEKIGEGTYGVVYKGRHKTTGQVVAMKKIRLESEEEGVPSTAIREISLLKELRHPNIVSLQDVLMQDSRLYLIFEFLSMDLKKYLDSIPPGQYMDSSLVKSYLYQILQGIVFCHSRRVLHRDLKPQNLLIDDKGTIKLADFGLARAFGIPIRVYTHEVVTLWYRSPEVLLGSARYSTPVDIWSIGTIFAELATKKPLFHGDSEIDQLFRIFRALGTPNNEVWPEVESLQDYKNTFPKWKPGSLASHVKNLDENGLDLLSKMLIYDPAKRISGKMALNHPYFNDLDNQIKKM
T1 sequence (P14635 whole entry partner): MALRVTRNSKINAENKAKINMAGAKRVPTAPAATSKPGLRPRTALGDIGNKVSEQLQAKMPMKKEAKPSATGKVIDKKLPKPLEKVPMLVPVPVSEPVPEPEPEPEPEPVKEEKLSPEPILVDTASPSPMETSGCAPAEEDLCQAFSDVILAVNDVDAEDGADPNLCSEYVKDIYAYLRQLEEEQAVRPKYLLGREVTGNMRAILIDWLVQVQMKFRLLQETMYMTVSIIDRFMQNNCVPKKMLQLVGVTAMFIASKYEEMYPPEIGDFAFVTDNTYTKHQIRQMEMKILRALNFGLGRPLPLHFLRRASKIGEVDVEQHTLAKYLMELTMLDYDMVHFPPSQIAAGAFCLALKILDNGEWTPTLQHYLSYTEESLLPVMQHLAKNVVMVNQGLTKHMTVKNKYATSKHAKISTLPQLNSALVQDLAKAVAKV
CDK9/CyclinT1, sequence (P50750 whole entry): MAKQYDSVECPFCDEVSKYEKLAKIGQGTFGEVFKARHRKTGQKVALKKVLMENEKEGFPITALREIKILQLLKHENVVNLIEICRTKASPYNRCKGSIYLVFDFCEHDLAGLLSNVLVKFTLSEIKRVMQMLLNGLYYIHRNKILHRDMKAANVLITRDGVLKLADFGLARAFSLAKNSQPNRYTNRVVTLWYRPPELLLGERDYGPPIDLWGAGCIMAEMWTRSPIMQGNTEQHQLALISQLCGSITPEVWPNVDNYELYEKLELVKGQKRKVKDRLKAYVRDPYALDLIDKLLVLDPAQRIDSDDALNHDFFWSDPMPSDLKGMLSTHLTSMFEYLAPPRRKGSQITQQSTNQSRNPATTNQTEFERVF
CDK9/CyclinT1, sequence (O60563 whole entry partner): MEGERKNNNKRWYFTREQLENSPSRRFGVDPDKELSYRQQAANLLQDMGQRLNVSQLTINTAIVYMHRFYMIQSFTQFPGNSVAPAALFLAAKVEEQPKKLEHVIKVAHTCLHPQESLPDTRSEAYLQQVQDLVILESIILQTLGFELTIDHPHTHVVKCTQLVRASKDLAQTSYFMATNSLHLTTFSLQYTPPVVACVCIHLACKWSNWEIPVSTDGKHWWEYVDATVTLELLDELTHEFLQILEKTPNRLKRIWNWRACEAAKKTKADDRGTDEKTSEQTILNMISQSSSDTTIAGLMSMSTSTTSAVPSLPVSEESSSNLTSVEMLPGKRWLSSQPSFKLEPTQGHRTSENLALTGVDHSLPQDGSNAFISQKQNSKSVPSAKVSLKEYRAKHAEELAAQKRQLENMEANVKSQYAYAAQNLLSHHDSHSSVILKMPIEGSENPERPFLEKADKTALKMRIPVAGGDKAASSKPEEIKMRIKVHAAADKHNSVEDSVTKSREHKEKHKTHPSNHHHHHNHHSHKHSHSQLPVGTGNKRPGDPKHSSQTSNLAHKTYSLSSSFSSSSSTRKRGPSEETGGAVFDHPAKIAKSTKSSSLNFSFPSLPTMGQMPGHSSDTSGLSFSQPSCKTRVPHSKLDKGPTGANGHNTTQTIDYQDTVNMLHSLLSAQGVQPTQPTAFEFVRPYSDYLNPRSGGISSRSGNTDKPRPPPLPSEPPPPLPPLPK

As to `O=C1NCCOCCNS(=O)(=O)c2ccc(c(F)c2)Nc2cc([nH]n2)[C@H]2CC[C@H](C2)O1` [Compound 89, (1^1S,1^3R,Z)-4^2-Fluoro-2^1H-9,14-dioxa-5-thia-3,6,12-triaza-2(5,3)-pyrazola-4(1,4)-benzena-1(1,3)-cyclopentanacyclotetradecaphan-13-one 5,5-dioxide], the Ki at CDK1/CyclinB1 [1] was 1 to 25 nM; at CDK9/CyclinT1 it was at least 100 nM; on CDK2/CyclinA2, 1 to 25 nM; at CDK1/CyclinB1 [2] it was 1 to 25 nM. Moreover, the “CDK2/CCNA2 ChEF 10xKm Ki: CDK2/A2 Selectivity over CDK9/T1” value on CDK2/CyclinA2 is recorded as “A (A>10)”.
As for `O=C1NCCCCCNS(=O)(=O)c2ccc(c(F)c2)Nc2cc([nH]n2)[C@H]2CC[C@H](C2)O1` [Compound 90, (1^1S,1^3R,Z)-4^2-fluoro-2^1H-14-oxa-5-thia-3,6,12-triaza-2(5,3)-pyrazola-4(1,4)-benzena-1(1,3)-cyclopentanacyclotetradecaphan-13-one 5,5-dioxide], the Ki on CDK1/CyclinB1 [1] is 25 to 100 nM; at CDK9/CyclinT1, at least 100 nM; on CDK2/CyclinA2, 1 to 25 nM; at CDK1/CyclinB1 [2], 1 to 25 nM. Besides, the “CDK2/CCNA2 ChEF 10xKm Ki: CDK2/A2 Selectivity over CDK9/T1” value on CDK2/CyclinA2 is “A (A>10)”.
Regarding `O=C1NCCCCCCNS(=O)(=O)c2ccc(c(F)c2)Nc2cc([nH]n2)[C@H]2CC[C@H](C2)O1` [Compound 91, (1^1S,1^3R,Z)-4^2-fluoro-2^1H-15-oxa-5-thia-3,6,13-triaza-2(5,3)-pyrazola-4(1,4)-benzena-1(1,3)-cyclopentanacyclopentadecaphan-14-one 5,5-dioxide], the Ki on CDK1/CyclinB1 [1] is 1 to 25 nM; at CDK9/CyclinT1, at least 100 nM; at CDK2/CyclinA2, below 1 nM; at CDK1/CyclinB1 [2], 1 to 25 nM. Besides, the “CDK2/CCNA2 ChEF 10xKm Ki: CDK2/A2 Selectivity over CDK9/T1” value on CDK2/CyclinA2 is “A (A>10)”.
In the case of `O=C1NCCCCCCCNS(=O)(=O)c2ccc(c(F)c2)Nc2cc([nH]n2)[C@H]2CC[C@H](C2)O1` [Compound 92], the Ki is below 1 nM at CDK1/CyclinB1 [1], at least 100 nM at CDK9/CyclinT1, below 1 nM at CDK2/CyclinA2 and below 1 nM at CDK1/CyclinB1 [2]. Also, the “CDK2/CCNA2 ChEF 10xKm Ki: CDK2/A2 Selectivity over CDK9/T1” value at CDK2/CyclinA2 was “A (A>10)”.
Consider `O=C1NCCCn2cc(cn2)S(=O)(=O)N2CCC(CC2)Nc2cc([nH]n2)[C@H]2CC[C@H](C2)O1` [Compound 95, (1^1S, 1^3R,2^4Z,6^4E)-2^1H,6^1H-12-oxa-5-thia-3,10-diaza-4(4,1)-piperidina-2(5,3),6(4,1)-dipyrazola-1(1,3)-cyclopentanacyclododecaphan-11-one 5,5-dioxide], for which the Ki at CDK1/CyclinB1 [1], on CDK9/CyclinT1, at CDK2/CyclinA2 and at CDK1/CyclinB1 [2] was at least 100 nM each time. Further, the “CDK2/CCNA2 ChEF 10xKm Ki: CDK2/A2 Selectivity over CDK9/T1” value at CDK2/CyclinA2 was “C (C<5)”.
For `O=C1NCCCCCn2cc(cn2)S(=O)(=O)N2CCC(CC2)Nc2cc([nH]n2)[C@H]2CC[C@H](C2)O1` [Compound 96, (1^1S,1^3R,2^4Z,6^4E)-2^1H,6^1H-14-oxa-5-thia-3,12-diaza-4(4,1)-piperidina-2(5,3),6(4,1)-dipyrazola-1(1,3)-cyclopentanacyclotetradecaphan-13-one 5,5-dioxide], the Ki at CDK1/CyclinB1 [1] is at least 100 nM; at CDK9/CyclinT1 it was 25 to 100 nM; on CDK2/CyclinA2, 1 to 25 nM; at CDK1/CyclinB1 [2], 25 to 100 nM. Also, at CDK2/CyclinA2, the “CDK2/CCNA2 ChEF 10xKm Ki: CDK2/A2 Selectivity over CDK9/T1” value is “A (A>10)”.
As for `O=C1NCCCCCCn2cc(cn2)S(=O)(=O)N2CCC(CC2)Nc2cc([nH]n2)[C@H]2CC[C@H](C2)O1` [Compound 97, (1^1S,1^3R,2^4Z,6^4E)-2^1H,6^1H-15-oxa-5-thia-3,13-diaza-4(4,1)-piperidina-2(5,3),6(4,1)-dipyrazola-1(1,3)-cyclopentanacyclopentadecaphan-14-one 5,5-dioxide], the Ki on CDK1/CyclinB1 [1] was 1 to 25 nM; on CDK9/CyclinT1, at least 100 nM; at CDK2/CyclinA2, below 1 nM; at CDK1/CyclinB1 [2], 1 to 25 nM. Besides, the “CDK2/CCNA2 ChEF 10xKm Ki: CDK2/A2 Selectivity over CDK9/T1” value on CDK2/CyclinA2 is on record as “A (A>10)”.
Regarding `O=C1NCCCNS(=O)(=O)c2ccc(c(F)c2)Nc2cc([nH]n2)[C@H]2CC[C@H](C2)O1` [Compound 98, (1^1S, 1^3R,Z)-4^2-fluoro-2^1H-12-oxa-5-thia-3,6, 10-triaza-2(5,3)-pyrazola-4(1,4)-benzena-1(1,3)-cyclopentanacyclododecaphan-11-one 5,5-dioxide], the Ki is at least 100 nM on CDK1/CyclinB1 [1], 25 to 100 nM at CDK9/CyclinT1, 25 to 100 nM on CDK2/CyclinA2 and at least 100 nM on CDK1/CyclinB1 [2]. Also, the “CDK2/CCNA2 ChEF 10xKm Ki: CDK2/A2 Selectivity over CDK9/T1” value at CDK2/CyclinA2 was “B (5≤B<10)”.
Turning to `O=C1NCCCCNS(=O)(=O)c2ccc(c(F)c2)Nc2cc([nH]n2)[C@H]2CC[C@H](C2)O1` [Compound 99, (1^1S, 1^3R,Z)-4^2-fluoro-2^1H-13-oxa-5-thia-3,6,11-triaza-2(5,3)-pyrazola-4(1,4)-benzena-1(1,3)-cyclopentanacyclotridecaphan-12-one 5,5-dioxide], the Ki at CDK1/CyclinB1 [1] is 1 to 25 nM; at CDK9/CyclinT1 it was at least 100 nM; at CDK2/CyclinA2 it was below 1 nM; on CDK1/CyclinB1 [2], 1 to 25 nM. The “CDK2/CCNA2 ChEF 10xKm Ki: CDK2/A2 Selectivity over CDK9/T1” value on CDK2/CyclinA2 is reported as “A (A>10)”.
As to `CN1CCNC(=O)O[C@@H]2CC[C@@H](C2)c2cc(n[nH]2)Nc2ccc(cc2F)S(=O)(=O)NCC1` [Compound 100, (1^1S, 1^3R,Z)-4^2-fluoro-9-methyl-2^1H-14-oxa-5-thia-3,6,9,12-tetraaza-2(5,3)-pyrazola-4(1,4)-benzena-1(1,3)-cyclopentanacyclotetradecaphan-13-one 5,5-dioxide], the Ki was at least 100 nM on CDK1/CyclinB1 [1], at least 100 nM on CDK9/CyclinT1, 1 to 25 nM at CDK2/CyclinA2 and 25 to 100 nM on CDK1/CyclinB1 [2]. Moreover, the “CDK2/CCNA2 ChEF 10xKm Ki: CDK2/A2 Selectivity over CDK9/T1” value at CDK2/CyclinA2 is given as “A (A>10)”.
As to `CC1(C)CCCNS(=O)(=O)c2ccc(c(F)c2)Nc2cc([nH]n2)[C@H]2CC[C@H](C2)OC(=O)N1` [Compound 101, (1^1S,1^3R,Z)-4^2-fluoro-10,10-dimethyl-2^1H-13-oxa-5-thia-3,6,11-triaza-2(5,3)-pyrazola-4(1,4)-benzena-1(1,3)-cyclopentanacyclotridecaphan-12-one 5,5-dioxide], the Ki on CDK1/CyclinB1 [1] is at least 100 nM; at CDK9/CyclinT1, 25 to 100 nM; on CDK2/CyclinA2, 1 to 25 nM; on CDK1/CyclinB1 [2], 25 to 100 nM. The “CDK2/CCNA2 ChEF 10xKm Ki: CDK2/A2 Selectivity over CDK9/T1” value on CDK2/CyclinA2 was “A (A>10)”.
